Laboratory results published in US10947291B2, “Treating type I and type II diabetes” (Mayo Foundation for Medical Education and Research, priority 2013, dated 2021).

System: female mice (C57/BL6) with streptozocin-induced hyperglycemia
Experiment: AAV1.CMV.insulin.RSV.icasp9 and AP20187 in streptozocin-treated C57/BL6 mice, blood glucose
Format: in vivo
Settings: IP 10 mg/kg, five consecutive days starting on day 14 after AAV1.CMV.insulin.RSV.icasp9 (FIG. 6)
Protocol: FIG. 6 is a graph plotting glucose levels for three groups of mice. One group was treated intraperitoneally (IP) with streptozocin (STZ) for two weeks to develop hyperglycemia. A second group was treated intraperitoneally (IP) with streptozocin (STZ) for two weeks to develop hyperglycemia and then administered AAV1.CMV.insulin.RSV.icasp9 (AAV1) intramuscularly (IM) on day zero. The third group was treated intraperitoneally (IP) with streptozocin (STZ) for two weeks to develop hyperglycemia, was then administered AAV1.CMV.insulin.RSV.icasp9 (AAV1) intramuscularly (IM) on day zero followed by intraperitoneal (IP) administration of AP20187 (B/B) on days 14, 15, 16, 17, and 18.
To induce diabetes in mice, three groups of female mice (C57/BL6) were given, on 5 consecutive days, an intraperitoneal (IP) injection of Streptozocin (STZ; Sigma cat #50130) at 45 mg/kg body weight dissolved in 0.1 mol/L citrate buffer (pH 4.5) immediately before administration. Two weeks later, when hyperglycemia developed, two groups of mice were injected intramuscularly (IM) with 1×10E11 particles/mice of AAV1.CMV.insulin.RSV.icasp9. Blood glucose levels were determined using a Contour blood glucose test strips (Bayer HealthCare LLC). 14 days later, one group of mice was injected via IP injection with 10 mg/kg of AP20187 (B/B homodimerizer; Clontech, Cat. No. AP20187) for 5 consecutive days.

In the case of `CC[C@H](C(=O)N1CCCCC1C(=O)O[C@H](CCc1ccc(OC)c(OC)c1)c1cccc(OCC(=O)NCC(CNC(=O)COc2cccc([C@@H](CCc3ccc(OC)c(OC)c3)OC(=O)[C@@H]3CCCCN3C(=O)[C@@H](CC)c3cc(OC)c(OC)c(OC)c3)c2)CN(C)C)c1)c1cc(OC)c(OC)c(OC)c1` (stereo partly shown) [AP20187], the “glucose levels after induction of the iCasp9 death switch” value is reported as “steady increase in glucose levels”.
